The assay addresses Envelope glycoprotein gp160 (Human immunodeficiency virus 1, UniProt Q6QLK5). Description: inhibitors of HIV fusion peptide binding, primary screen, biochemical, uHTS, fluorescence dequenching (AID 1986).

We go through 1 compound from ChEMBL document CHEMBL1201862, “PubChem BioAssay data set” (2004).

The source made the active and inactive calls. No stated cut-off is given here; in the data, actives have a measured IC50 and inactives only a lower limit.

Chain of Envelope glycoprotein gp160 (Q6QLK5 whole entry, the tested form may be a part): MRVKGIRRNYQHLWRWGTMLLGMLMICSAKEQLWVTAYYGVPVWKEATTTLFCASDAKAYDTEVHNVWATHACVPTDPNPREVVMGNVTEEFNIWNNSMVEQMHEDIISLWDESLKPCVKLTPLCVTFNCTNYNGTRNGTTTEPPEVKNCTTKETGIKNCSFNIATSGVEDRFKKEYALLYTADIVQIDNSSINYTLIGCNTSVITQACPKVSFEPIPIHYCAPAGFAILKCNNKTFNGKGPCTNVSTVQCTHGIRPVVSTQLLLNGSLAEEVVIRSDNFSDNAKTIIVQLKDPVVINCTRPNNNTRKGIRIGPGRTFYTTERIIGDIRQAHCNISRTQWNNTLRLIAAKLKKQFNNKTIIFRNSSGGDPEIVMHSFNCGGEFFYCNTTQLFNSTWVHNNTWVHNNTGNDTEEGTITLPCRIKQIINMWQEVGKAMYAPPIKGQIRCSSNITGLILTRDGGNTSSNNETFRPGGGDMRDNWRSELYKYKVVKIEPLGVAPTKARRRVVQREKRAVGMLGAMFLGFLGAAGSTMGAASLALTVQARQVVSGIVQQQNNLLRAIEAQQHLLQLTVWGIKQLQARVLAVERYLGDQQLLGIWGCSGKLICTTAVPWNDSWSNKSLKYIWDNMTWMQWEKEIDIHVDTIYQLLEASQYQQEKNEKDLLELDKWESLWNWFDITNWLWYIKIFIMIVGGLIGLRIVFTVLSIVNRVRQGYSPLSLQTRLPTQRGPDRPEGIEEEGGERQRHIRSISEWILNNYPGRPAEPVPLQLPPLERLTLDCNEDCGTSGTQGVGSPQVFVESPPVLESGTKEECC

In general, IC50 refers to the concentration needed to halve the response being measured. As for `O=C(O)CN1C(=O)/C(=C\c2ccccc2OCc2ccc(Cl)cc2Cl)SC1=S`, the IC50 is 16.1 µM (active).
